How the values were obtained:
Aβ42 [1] = test: HEK assay: Aβ42 secreted by HEK cells stably expressing APPswe (Meso Scale electrochemiluminescence); assay type: cell-based, Human; conditions: 4-6 hours incubation with compound, Aβ42 in cell medium; for IC50: Homo sapiens, HEK293, HEK cell line stably expressing APPswe, read-out: pIC50 Aβ42 HEK assay (converted)
Method: Compounds were diluted in 100% DMSO and stored at […] prior to use. Human Embryonic Kidney (HEK) cell line stably expressing APP with the Swedish mutation (APPswe) was cultured using Dulbecco's Modified Eagles medium (DMEM) supplied with […] glucose, Na-pyruvate and GlutaMAX, 10% Foetal bovine serum, 100 U/mL penicillin-streptomycin (PEST), 1× non-essential amino acids (NEAA), […] Hepes, 100 μg/mL Zeocine. Cells at about 80% confluence were washed with PBS, detached from culture flasks using 1× Trypsin/EDTA diluted in PBS, re-suspended in cell media and plated in 384-well poly-d-lysine coated cell culture plates at about 10000-15000 cells/well, in 25 μL cell media. Optionally, cryo-preserved cells (frozen and stored at −140° C. in 90% cell media and 10% DMSO) were thawed, washed and plated as above. Next the cells were incubated for 15-24 h at 37° C. and 5% CO2, after which cell medium was changed. Fresh medium containing test compound diluted ×200 from prepared compound plate was added to the cells before further incubation for 4-6 hours at 37° C. and 5% CO2. After incubation with test compound the amount of Aβ peptides, including Aβ42, Aβ40, Aβ39, Aβ38 and Aβ37, secreted to cell medium was analyzed using the electrochemiluminescence assay technology from Meso Scale Discovery Technology, in combination with specific antibodies raised against the different Aβ peptides. Potential cytotoxic effects of the compounds were assayed by measuring the ATP content (ViaLight) from cell lysate.

Aβ42 [2] = test: PCN assay: Aβ42 secreted by mouse primary cortical neuronal cells (ELISA); assay type: cell-based; conditions: primary cortical neuronal cells from 16-day mouse embryos, 16-20 hours incubation with compound, Aβ42 in cell medium; for IC50: Mus musculus, read-out: pIC50 Aβ42 PCN assay (converted)
Method: Compounds were diluted in 100% DMSO and stored at […] prior to use. Primary cortical neuronal cells (PCN) were isolated from 16-day mouse embryos and cultured in Ham's F12 media containing 10% Foetal bovine serum, 10 mM Hepes, 2 mM L-glutamine and 100 U/mL Penicillin-Streptomycin. 150000-250000 cells/well, in 200 μL cell media were seeded onto 96-well poly-D-Lysine coated plates. After incubation at 37° C., 5% CO2 for five days, the media was exchanged for fresh medium containing test compound diluted ×100, before further incubation for 16-20 hours at 37° C. and 5% CO2. After incubation with test compound the amount of Aβ42 peptides secreted to cell medium was analyzed using the solid phase sandwich Enzyme-Linked-Immuno-Sorbent Assay (ELISA)-kit from Invitrogen for detection of mouse βAmyloid 1-42. Potential cytotoxic effects of the compounds were assayed by measuring the ATP content (Via Light) from cell lysate.

IC50 (Aβ42 [1]) [µM] | pIC50 Aβ42 HEK assay (Aβ42 [1]; HEK cell line stably expressing APPswe) | SMILES | IC50 (Aβ42 [2]) [µM] | pIC50 Aβ42 PCN assay (Aβ42 [2])
0.0251 | – | COc1cc(Nc2nc(N3CCC3c3ccccc3)n(CC(C)(C)O)n2)ccc1-n1cnc(C)c1 (racemic) [Example 5, 1-(3-(3-Methoxy-4-(4-methyl-1H-imidazol-1-yl)phenylamino)-5-(2-phenylazetidin-1-yl)-1H-1,2,4-triazol-1-yl)-2-methylpropan-2-ol] | 0.0316 | –
0.0251 | – | COc1cc(Nc2nc(N3CCC3c3ccccc3)n(CC(C)(C)O)n2)ccc1-n1cnc(C)c1 (single isomer, unassigned; isomer 1) [Example 6, 1-(3-(3-Methoxy-4-(4-methyl-1H-imidazol-1-yl)phenylamino)-5-(2-phenylazetidin-1-yl)-1H-1,2,4-triazol-1-yl)-2-methylpropan-2-ol, isomer 1] | – | 7.2
– | 7.8 | COc1cc(Nc2nc(N3CCC3c3ccccc3)n(CC(C)(C)O)n2)ccc1-n1cnc(C)c1 (single isomer, unassigned; isomer 2) [Example 7, 1-(3-(3-Methoxy-4-(4-methyl-1H-imidazol-1-yl)phenylamino)-5-(2-phenylazetidin-1-yl)-1H-1,2,4-triazol-1-yl)-2-methylpropan-2-ol, isomer 2] | – | 7.7
0.0398 | – | COc1cc(Nc2nc(N3CC(c4ccccc4)C3)n(CC(C)(C)O)n2)ccc1-n1cnc(C)c1 [Example 1, 1-(3-(3-Methoxy-4-(4-methyl-1H-imidazol-1-yl)phenylamino)-5-(3-phenylazetidin-1-yl)-1H-1,2,4-triazol-1-yl)-2-methylpropan-2-ol] | 0.0158 | –
0.0501 | – | COc1cc(Nc2nc(N3CC(F)(c4ccccc4)C3)n(CC(C)(C)O)n2)ccc1-n1cnc(C)c1 [Example 2, 1-(5-(3-Fluoro-3-phenylazetidin-1-yl)-3-(3-methoxy-4-(4-methyl-1H-imidazol-1-yl)phenylamino)-1H-1,2,4-triazol-1-yl)-2-methylpropan-2-ol] | 0.0316 | –
0.0398 | – | COc1cc(Nc2nc(N3CC(c4ccccc4)C3)n(C)n2)ccc1-n1cnc(C)c1 [Example 3, N-(3-Methoxy-4-(4-methyl-1H-imidazol-1-yl)phenyl)-1-methyl-5-(3-phenylazetidin-1-yl)-1H-1,2,4-triazol-3-amine] | 0.0794 | –
0.0251 | – | COc1cc(Nc2nc(N3CCC3c3ccccc3)n(C)n2)ccc1-n1cnc(C)c1 (stereo not drawn) [Example 4, N-(3-Methoxy-4-(4-methyl-1H-imidazol-1-yl)phenyl)-1-methyl-5-(2-phenylazetidin-1-yl)-1H-1,2,4-triazol-3-amine] | 0.0251 | –
0.0501 | – | COc1cc(Nc2nc(N3CC4(CCC4)C3)n(CC(C)(C)O)n2)ccc1-n1cnc(C)c1 [Example 8, 1-(3-(3-Methoxy-4-(4-methyl-1H-imidazol-1-yl)phenylamino)-5-(2-azaspiro[3.3]heptan-2-yl)-1H-1,2,4-triazol-1-yl)-2-methylpropan-2-ol] | 0.0631 | –
0.0316 | – | COc1cc(Nc2nc(N3CCC34CCCC4)n(CC(C)(C)O)n2)ccc1-n1cnc(C)c1 [Example 9, 1-(3-(3-Methoxy-4-(4-methyl-1H-imidazol-1-yl)phenylamino)-5-(1-azaspiro[3.4]octan-1-yl)-1H-1,2,4-triazol-1-yl)-2-methylpropan-2-ol] | 0.0316 | –

Source: patent US9611254B2, “Triazole compounds and their use as gamma secretase modulators” (Acturum Life Science AB, priority 2013, dated 2017)
